Blank lines part the entries; values can stand above or below the compound they belong to. Activity calls are given as the source filed them. No cut-off for these calls is given here.
Experiments:
HCT-116 [1] = test: Induction of apoptosis in human HCT-116 cells assessed as late apoptotic cells at 0.2 uM incubated for 24 hrs by Annexin V-FITC/PI staining based flow cytometry analysis ( Rvb = 5.32%); format: functional
NCI-H1581 = test: Antiproliferative activity against human NCI-H1581 cells incubated for 48 hrs by MTT assay; format: functional, cell-based; conditions: NCI-H1581, 48 h
HCT-116 [2] = test: Induction of cell cycle arrest in human HCT-116 cells assessed as accumulation of cells at S phase at 0.1 uM after 24 hrs by PI staining based flow cytometry analysis (reference value: 52.8%); format: functional
EBC-1 = test: Antiproliferative activity against human EBC-1 cells incubated for 48 hrs by MTT assay; format: functional, cell-based; conditions: EBC-1, 48 h
[3] = target: T1, Protein deacetylase HDAC6 (Homo sapiens) (UniProt Q9UBN7); test: Inhibition of HDAC6 in human HCT-116 cells assessed as upregulation of acetylated alpha-tubulin level incubated for 24 hrs by Western blotting analysis; format: cell-based; conditions: dose 0.5-4 µM
T1 sequence (whole entry): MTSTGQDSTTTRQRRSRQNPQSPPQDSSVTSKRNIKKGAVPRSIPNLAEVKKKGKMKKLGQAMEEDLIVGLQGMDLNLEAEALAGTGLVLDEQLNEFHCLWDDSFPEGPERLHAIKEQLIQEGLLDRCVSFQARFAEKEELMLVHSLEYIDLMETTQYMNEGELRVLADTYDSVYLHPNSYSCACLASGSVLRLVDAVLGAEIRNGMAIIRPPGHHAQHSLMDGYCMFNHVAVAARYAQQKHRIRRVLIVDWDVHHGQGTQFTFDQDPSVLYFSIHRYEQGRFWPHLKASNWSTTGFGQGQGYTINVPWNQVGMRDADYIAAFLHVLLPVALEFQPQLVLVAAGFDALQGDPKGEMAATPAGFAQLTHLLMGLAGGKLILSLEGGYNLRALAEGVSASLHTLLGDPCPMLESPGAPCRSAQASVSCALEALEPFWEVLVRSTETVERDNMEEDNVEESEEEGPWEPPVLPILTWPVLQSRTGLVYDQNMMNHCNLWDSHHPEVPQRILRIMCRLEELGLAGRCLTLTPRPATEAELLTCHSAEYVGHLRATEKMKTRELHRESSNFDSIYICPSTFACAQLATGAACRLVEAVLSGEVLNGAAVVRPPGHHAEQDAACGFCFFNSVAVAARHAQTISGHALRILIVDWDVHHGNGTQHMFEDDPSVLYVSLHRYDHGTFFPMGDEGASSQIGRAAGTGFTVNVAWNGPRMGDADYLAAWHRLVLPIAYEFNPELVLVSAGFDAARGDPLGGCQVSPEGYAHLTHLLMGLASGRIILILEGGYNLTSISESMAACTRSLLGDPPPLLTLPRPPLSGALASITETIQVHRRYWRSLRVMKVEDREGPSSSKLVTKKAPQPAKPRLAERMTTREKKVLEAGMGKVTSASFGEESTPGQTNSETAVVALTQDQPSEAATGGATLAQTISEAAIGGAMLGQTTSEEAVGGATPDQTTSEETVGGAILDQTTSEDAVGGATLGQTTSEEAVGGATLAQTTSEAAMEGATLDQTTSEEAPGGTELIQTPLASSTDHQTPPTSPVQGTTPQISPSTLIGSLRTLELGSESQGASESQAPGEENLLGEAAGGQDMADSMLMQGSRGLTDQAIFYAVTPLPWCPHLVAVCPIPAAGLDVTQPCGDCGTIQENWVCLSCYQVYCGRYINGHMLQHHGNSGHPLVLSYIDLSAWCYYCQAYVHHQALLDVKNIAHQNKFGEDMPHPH

HCT-116 [4] = test: Induction of apoptosis in human HCT-116 cells assessed as viable cells at 0.2 uM incubated for 24 hrs by Annexin V-FITC/PI staining based flow cytometry analysis ( Rvb = 92.2%); format: functional; conditions: read-out: Activity
HCT-116 [5] = test: Induction of cell cycle arrest in human HCT-116 cells assessed as accumulation of cells at G2/M phase at 0.4 uM after 24 hrs by PI staining based flow cytometry analysis (reference value: 9.3%); format: functional
HCT-116 [6] = test: Antiproliferative activity against human HCT-116 cells incubated for 48 hrs by MTT assay; format: functional, cell-based; conditions: HCT-116, 48 h
[7] = target: T1, Protein deacetylase HDAC6 (Homo sapiens); test: Inhibition of HDAC6 in human HCT-116 cells assessed as upregulation of acetylated alpha-tubulin level at 1 uM incubated for 24 hrs by Western blotting analysis; format: cell-based
[8] = target: T2, Class 1 histone deacetylase (Homo sapiens) (UniProt Q13547+O15379+Q92769+Q9BY41); test: Inhibition of class 1 HDACs in human HCT-116 cells assessed as upregulation of acetylated alpha-H3 level at 1 uM incubated for 24 hrs by Western blotting analysis; format: cell-based
HCT-116 [9] = test: Induction of cell cycle arrest in human HCT-116 cells assessed as accumulation of cells at G1 phase at 0.1 uM after 24 hrs by PI staining based flow cytometry analysis (reference value: 37.9%); format: functional
HCT-116 [10] = test: Induction of cell cycle arrest in human HCT-116 cells assessed as accumulation of cells at G2/M phase at 0.2 uM after 24 hrs by PI staining based flow cytometry analysis (reference value: 9.3%); format: functional
HCT-116 [11] = test: Induction of cell cycle arrest in human HCT-116 cells assessed as accumulation of cells at G1 phase at 0.4 uM after 24 hrs by PI staining based flow cytometry analysis (reference value: 37.9%); format: functional
HCT-116 [12] = test: Induction of apoptosis in human HCT-116 cells assessed as late apoptotic cells at 0.4 uM incubated for 24 hrs by Annexin V-FITC/PI staining based flow cytometry analysis ( Rvb = 5.32%); format: functional
HCT-116 [13] = test: Induction of apoptosis in human HCT-116 cells assessed as viable cells at 0.4 uM incubated for 24 hrs by Annexin V-FITC/PI staining based flow cytometry analysis ( Rvb = 92.2%); format: functional; conditions: read-out: Activity
HCT-116 [14] = test: Induction of apoptosis in human HCT-116 cells assessed as necrotic cells at 0.4 uM incubated for 24 hrs by Annexin V-FITC/PI staining based flow cytometry analysis ( Rvb = 0.24%); format: functional
HCT-116 [15] = test: Induction of apoptosis in human HCT-116 cells assessed as early apoptotic cells at 0.2 uM incubated for 24 hrs by Annexin V-FITC/PI staining based flow cytometry analysis ( Rvb = 2.36%); format: functional
HCT-116 [16] = test: Induction of cell cycle arrest in human HCT-116 cells assessed as accumulation of cells at G2/M phase at 0.1 uM after 24 hrs by PI staining based flow cytometry analysis (reference value: 9.3%); format: functional
HCT-116 [17] = test: Induction of cell cycle arrest in human HCT-116 cells assessed as accumulation of cells at S phase at 0.4 uM after 24 hrs by PI staining based flow cytometry analysis (reference value: 52.8%); format: functional
[18] = target: T2, Class 1 histone deacetylase (Homo sapiens); test: Inhibition of class 1 HDACs in human HCT-116 cells assessed as upregulation of acetylated alpha-H3 level incubated for 24 hrs by Western blotting analysis; format: cell-based; conditions: dose 0.5-4 µM
HCT-116 [19] = test: Induction of apoptosis in human HCT-116 cells assessed as necrotic cells at 0.2 uM incubated for 24 hrs by Annexin V-FITC/PI staining based flow cytometry analysis ( Rvb = 0.24%); format: functional
HCT-116 [20] = test: Induction of apoptosis in human HCT-116 cells assessed as early apoptotic cells at 0.4 uM incubated for 24 hrs by Annexin V-FITC/PI staining based flow cytometry analysis ( Rvb = 2.36%); format: functional
HCT-116 [21] = test: Induction of cell cycle arrest in human HCT-116 cells assessed as accumulation of cells at S phase at 0.2 uM after 24 hrs by PI staining based flow cytometry analysis (reference value: 52.8%); format: functional
HCT-116 [22] = test: Induction of cell cycle arrest in human HCT-116 cells assessed as accumulation of cells at G1 phase at 0.2 uM after 24 hrs by PI staining based flow cytometry analysis (reference value: 37.9%); format: functional
HCT-116 [23] = test: Induction of apoptosis in human HCT-116 cells assessed as late apoptotic cells at 4 uM incubated for 24 hrs by Annexin V-FITC/PI staining based flow cytometry analysis ( Rvb = 5.32%); format: functional
HCT-116 [24] = test: Induction of cell cycle arrest in human HCT-116 cells assessed as accumulation of cells at G1 phase at 1 uM after 24 hrs by PI staining based flow cytometry analysis (reference value: 37.9%); format: functional
HCT-116 [25] = test: Induction of apoptosis in human HCT-116 cells assessed as necrotic cells at 4 uM incubated for 24 hrs by Annexin V-FITC/PI staining based flow cytometry analysis ( Rvb = 0.24%); format: functional
HCT-116 [26] = test: Induction of apoptosis in human HCT-116 cells assessed as necrotic cells at 2 uM incubated for 24 hrs by Annexin V-FITC/PI staining based flow cytometry analysis ( Rvb = 0.24%); format: functional
HCT-116 [27] = test: Induction of apoptosis in human HCT-116 cells assessed as viable cells at 4 uM incubated for 24 hrs by Annexin V-FITC/PI staining based flow cytometry analysis ( Rvb = 92.2%); format: functional; conditions: read-out: Activity
HCT-116 [28] = test: Antitumor activity against human HCT-116 cells xenografted with BALB/c nude mouse assessed as tumor growth inhibition at 10 mg/kg, ip administered every 2 days for 26 days; format: functional; conditions: HCT-116, 624 h, time 26 day, read-out: TGI
Histone deacetylase 1 = Histone deacetylase 1 (Homo sapiens, UniProt Q13547); test: Inhibition of recombinant human HDAC1 using Boc-Lys(Ac)-AMC as substrate preincubated for 1 hr followed by substrate addition and measured after 2 hrs by microplate reader assay
HCT-116 [29] = test: Induction of cell cycle arrest in human HCT-116 cells assessed as accumulation of cells at G2/M phase at 2 uM after 24 hrs by PI staining based flow cytometry analysis (reference value: 9.3%); format: functional
HCT-116 [30] = test: Induction of cell cycle arrest in human HCT-116 cells assessed as accumulation of cells at G2/M phase at 1 uM after 24 hrs by PI staining based flow cytometry analysis (reference value: 9.3%); format: functional
HCT-116 [31] = test: Induction of cell cycle arrest in human HCT-116 cells assessed as accumulation of cells at S phase at 2 uM after 24 hrs by PI staining based flow cytometry analysis (reference value: 52.8%); format: functional
HCT-116 [32] = test: Induction of apoptosis in human HCT-116 cells assessed as late apoptotic cells at 2 uM incubated for 24 hrs by Annexin V-FITC/PI staining based flow cytometry analysis ( Rvb = 5.32%); format: functional
HCT-116 [33] = test: Induction of apoptosis in human HCT-116 cells assessed as early apoptotic cells at 2 uM incubated for 24 hrs by Annexin V-FITC/PI staining based flow cytometry analysis ( Rvb = 2.36%); format: functional
HCT-116 [34] = test: Induction of apoptosis in human HCT-116 cells assessed as viable cells at 2 uM incubated for 24 hrs by Annexin V-FITC/PI staining based flow cytometry analysis ( Rvb = 92.2%); format: functional; conditions: read-out: Activity
HCT-116 [35] = test: Induction of cell cycle arrest in human HCT-116 cells assessed as accumulation of cells at G1 phase at 2 uM after 24 hrs by PI staining based flow cytometry analysis (reference value: 37.9%); format: functional
HCT-116 [36] = test: Induction of apoptosis in human HCT-116 cells assessed as early apoptotic cells at 4 uM incubated for 24 hrs by Annexin V-FITC/PI staining based flow cytometry analysis ( Rvb = 2.36%); format: functional
HCT-116 [37] = test: Induction of cell cycle arrest in human HCT-116 cells assessed as accumulation of cells at S phase at 1 uM after 24 hrs by PI staining based flow cytometry analysis (reference value: 52.8%); format: functional

T2 sequence (O15379 whole entry, looked up): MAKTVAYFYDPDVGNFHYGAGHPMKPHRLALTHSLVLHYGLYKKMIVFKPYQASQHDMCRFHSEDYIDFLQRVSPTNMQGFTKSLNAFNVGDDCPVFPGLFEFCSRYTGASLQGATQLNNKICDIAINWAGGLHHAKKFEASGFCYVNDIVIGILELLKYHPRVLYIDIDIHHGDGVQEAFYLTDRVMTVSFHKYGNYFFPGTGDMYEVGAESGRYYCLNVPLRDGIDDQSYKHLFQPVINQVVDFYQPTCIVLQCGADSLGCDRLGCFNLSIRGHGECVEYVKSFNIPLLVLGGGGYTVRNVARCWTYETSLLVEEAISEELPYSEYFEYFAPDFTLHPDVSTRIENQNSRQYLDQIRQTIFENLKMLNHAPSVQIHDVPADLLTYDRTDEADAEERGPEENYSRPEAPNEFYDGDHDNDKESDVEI
T2 sequence (Q13547 whole entry, looked up): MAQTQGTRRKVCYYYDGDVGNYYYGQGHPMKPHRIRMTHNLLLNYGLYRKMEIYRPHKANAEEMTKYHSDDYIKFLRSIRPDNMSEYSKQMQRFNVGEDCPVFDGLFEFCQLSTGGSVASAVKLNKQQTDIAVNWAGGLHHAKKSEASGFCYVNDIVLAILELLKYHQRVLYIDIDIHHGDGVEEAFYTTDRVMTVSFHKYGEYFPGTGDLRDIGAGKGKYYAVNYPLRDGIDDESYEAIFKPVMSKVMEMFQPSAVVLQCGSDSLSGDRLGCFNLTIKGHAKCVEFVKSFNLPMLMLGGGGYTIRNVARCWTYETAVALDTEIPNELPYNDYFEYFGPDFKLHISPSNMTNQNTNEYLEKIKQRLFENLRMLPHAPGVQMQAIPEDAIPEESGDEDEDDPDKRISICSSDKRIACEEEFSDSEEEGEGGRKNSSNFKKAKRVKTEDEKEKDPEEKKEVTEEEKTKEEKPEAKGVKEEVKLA
T2 sequence (Q92769 whole entry, looked up): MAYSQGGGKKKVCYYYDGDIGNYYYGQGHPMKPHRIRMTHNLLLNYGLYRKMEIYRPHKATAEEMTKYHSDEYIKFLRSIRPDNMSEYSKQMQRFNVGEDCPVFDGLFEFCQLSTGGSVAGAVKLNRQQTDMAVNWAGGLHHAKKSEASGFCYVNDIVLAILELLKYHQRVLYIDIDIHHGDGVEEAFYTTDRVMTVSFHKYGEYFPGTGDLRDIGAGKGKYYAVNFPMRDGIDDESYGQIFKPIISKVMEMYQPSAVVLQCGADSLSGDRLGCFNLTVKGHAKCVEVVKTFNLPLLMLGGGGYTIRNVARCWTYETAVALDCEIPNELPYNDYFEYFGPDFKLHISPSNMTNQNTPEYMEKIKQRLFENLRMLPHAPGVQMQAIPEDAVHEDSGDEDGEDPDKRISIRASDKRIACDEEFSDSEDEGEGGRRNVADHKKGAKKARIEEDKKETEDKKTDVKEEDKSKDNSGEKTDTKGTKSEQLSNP
T2 sequence (Q9BY41 whole entry, looked up): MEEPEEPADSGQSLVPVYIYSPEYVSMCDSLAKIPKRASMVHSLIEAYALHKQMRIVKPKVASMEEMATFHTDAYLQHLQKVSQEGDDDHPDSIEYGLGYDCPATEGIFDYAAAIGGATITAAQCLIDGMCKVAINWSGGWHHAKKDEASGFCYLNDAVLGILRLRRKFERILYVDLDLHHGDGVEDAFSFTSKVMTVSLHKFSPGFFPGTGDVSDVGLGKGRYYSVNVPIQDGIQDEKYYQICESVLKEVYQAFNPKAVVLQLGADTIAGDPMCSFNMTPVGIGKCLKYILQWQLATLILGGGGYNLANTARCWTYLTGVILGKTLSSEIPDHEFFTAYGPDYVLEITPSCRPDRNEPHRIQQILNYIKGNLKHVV
Chain of Histone deacetylase 1 (Q13547 whole entry): as the sequence (Q13547 whole entry, looked up) above

IC50 (NCI-H1581): 480 nM
inhibition [3]: Dose-Dependent Effect
IC50 (HCT-116 [6]): 290 nM
inhibition [7]: Active
inhibition [8]: Active
inhibition [18]: Dose-Dependent Effect
Compound: O=C(NCC[Se][Se]CCNC(=O)/C(Cc1ccc(Br)o1)=N/O)/C(Cc1ccc(Br)o1)=N/O
Activity (HCT-116 [1]): 18.2%
Activity (HCT-116 [2]): 45.66%
IC50 (EBC-1): 620 nM
viability at 0.2 µM (HCT-116 [4]): 80.6%
Activity (HCT-116 [5]): 19.11%
Activity (HCT-116 [9]): 35.83%
Activity (HCT-116 [10]): 17.28%
Activity (HCT-116 [11]): 56.35%
Activity (HCT-116 [12]): 11.9%
viability at 0.4 µM (HCT-116 [13]): 70.3%
Activity (HCT-116 [14]): 0%
Activity (HCT-116 [15]): 11.4%
Activity (HCT-116 [16]): 18.51%
Activity (HCT-116 [17]): 24.54%
Activity (HCT-116 [19]): 0.001%
Activity (HCT-116 [20]): 17.8%
Activity (HCT-116 [21]): 31.39%
Activity (HCT-116 [22]): 51.33%

IC50 (Histone deacetylase 1): 26 nM
IC50 (HCT-116 [6]): 3050 nM
inhibition [7]: inactive
inhibition [8]: Active
Compound: O=C(NCCSSCCNC(=O)/C(Cc1ccc(O)c(Br)c1)=N/O)/C(Cc1ccc(O)c(Br)c1)=N/O [PSAMMAPLIN A]
Activity (HCT-116 [23]): 40.3%
Activity (HCT-116 [24]): 45.72%
Activity (HCT-116 [25]): 1.06%
Activity (HCT-116 [26]): 0.67%
viability at 4 µM (HCT-116 [27]): 42.5%
inhibition in vivo at 10 mg/kg (HCT-116 [28]): 36.1%
Activity (HCT-116 [29]): 16.09%
Activity (HCT-116 [30]): 13.05%
Activity (HCT-116 [31]): 28.56%
Activity (HCT-116 [32]): 14.8%
Activity (HCT-116 [33]): 9.74%
viability at 2 µM (HCT-116 [34]): 74.8%
Activity (HCT-116 [35]): 55.34%
Activity (HCT-116 [36]): 16.2%
Activity (HCT-116 [37]): 41.24%
